From patent US11925690B2, “Bifunctional molecules for targeting Rpn11” (AMPHISTA THERAPEUTICS LTD, priority 2018, dated 2024)

Assays:
Type in all cases: cell-based
[1] = biological target: Brd3 (Homo sapiens, UniProt Q15059); assay: Time-dependent BET degradation, immunoblot; details: HEK293, Brd3, 1 μM; for Dmax at 1 µM: 0-24 hrs; for Abs. T1/2: time to deplete 50% of the protein relative to DMSO; for T1/2: time to reach 50% of the Dmax
Experimental: (§1) Immunoblotting. Proteins were separated by SDS-PAGE on NuPage 4-12% Bis-Tris gels, followed by transfer to Amersham Protran 0.45 NC nitrocellulose membrane (GE Healthcare) using wet transfer. Membranes were blocked using 5% w/v milk in Tris-buffered saline (TBS) with 0.1% Tween-20. Blots were probed (overnight at 4 °C) using anti-Brd2 (Abcam ab139690, 1:2,000 dilution), anti-Brd3 (Abcam ab50818, 1:500 dilution), and anti-Brd4 (Abcam ab128874, 1:1,000 dilution) primary antibodies, as appropriate. The next day, blots were washed with TBST and incubated (1 h at Room temperature) with anti-Tubulin hFAB-rhodamine (BioRad, 12004166) primary antibody, and either anti-rabbit IRDye 800CW (Licor 1:1,000 dilution) or anti-mouse IRDye 800CW (Licor 1:1,000 dilution) secondary antibody. Blots were developed using a Bio-Rad ChemiDoc MP Imaging System, and band quantification was performed using Image Studio software (LiCor). Band intensities were normalized to the tubulin loading control and reported as % of the average 0.1% DMSO vehicle intensity. Degradation data was plotted and analysed using Prism (Graphpad, version 8).
(§2) HEK293 (0.5×10^6) cells were seeded in standard 6-well plates (2 mL medium) overnight before treatment with compounds at 1 μM concentration, with a final DMSO concentration of 0.1% v/v. After incubation for the desired time (0-24 hrs), cells were washed with DPBS (Gibco) and lysed using 85 μL RIPA buffer (Sigma-Aldrich) supplemented with complete Mini EDTA-free protease inhibitor cocktail (Roche) and benzonase. Lysates were clarified by centrifugation (20000 g, 10 min, 4° C.) and the total protein content of the supernatant was quantified using a Bradford colorimetric assay. Samples were prepared using equal amounts of total protein and LDS sample buffer (Invitrogen). Band intensities were normalized to the tubulin loading control and reported as % of the average 0.1% DMSO vehicle intensity. Degradation data was plotted and analysed using Prism (Graphpad, version 8).
(§3) MZ1 and 11JQ17 were used at 1 μM (4 h) for positive and negative controls, respectively. […]

[2] = biological target: T1, Brd4 (L) (Homo sapiens, UniProt O60885); assay: Time-dependent BET degradation, immunoblot; parameters: Dmax: dose or concentration left out as unconfirmed; details: HeLa; for Abs. T1/2 / T1/2: 1 μM; for Abs. T1/2: time to deplete 50% of the protein relative to DMSO; for T1/2: time to reach 50% of the Dmax
T1 construct: endogenous in cells; host or cells: HEK293 (CRL-1573), HeLa (CCL-2)
Experimental: as §1, §2
(§4) MZ1 and 11JQ17 were used at 1 μM (4 h) for positive and negative controls, respectively. […] T1/2 (h) is the time required to deplete 50% of the protein relative to DMSO.

[3] = biological target: T2, Brd4 (S) (Homo sapiens, UniProt O60885); assay: Time-dependent BET degradation, immunoblot; parameters: Dmax: dose or concentration left out as unconfirmed; details: HeLa; for Abs. T1/2 / T1/2: 1 μM; for Abs. T1/2: time to deplete 50% of the protein relative to DMSO; for T1/2: time to reach 50% of the Dmax
T2 construct: endogenous in cells; host or cells: HEK293 (CRL-1573), HeLa (CCL-2)
Experimental: as §1, §2, §4

[4] = system: MV4-11 cells; assay: CellTiter-Glo anti-proliferative assay; details: MV4-11, 72 h, 5 μM and below compound
Experimental: The anti-proliferative effects of representative compounds and other compounds was measured using the CellTiter-Glo assay (Promega). MV4-11 cells were incubated in a sterile, white, clear-bottomed 384-well cell-culture microplate (Greiner Bio-one), at 2× concentration in RPMI media and a volume of 25 μl. The next day, test compounds were serially diluted in RPMI media to 2× concentration, then added to cells to make a final volume of 50 μl. After a 72 h incubation 25 μl of CellTiter-Glo reagent was added to each well. Following 15 minute incubation the luminescence signal was read on a Pherastar FS. The final concentration of assay components are as follows: 3×10^5 cells/ml, 0.05% DMSO, 5 μM and below compound. Data (FIG. 8) was processed and dose-response curves generated using Prism 8 (Graphpad).

[5] = biological target: Brd2 (Homo sapiens, UniProt P25440); assay: Time-dependent BET degradation, immunoblot; parameters: endogenous in cells; host or cells: HEK293 (CRL-1573), HeLa (CCL-2); details: HeLa, Brd2, 1 μM
Experimental: as §1, §2, §3

[6] = biological target: T3, Brd4 (Homo sapiens, UniProt O60885); assay: Immunoblot analysis of Brd4 in HEK293 cells (prodrug activity, negative SAR); details: HEK293, 1 μM, 4 h, n=3
T3 construct: immunoblot analysis of Brd4 following 4 h treatment of HEK293 cells; endogenous in cells; host or cells: HEK293 (CRL-1573)
Experimental: as §1, with “8). […]” for “8).”
HEK293 (1×10^6) cells incubated with DMSO, 1 μM 11JQ15 or 1 μM 11JQ17 for 4 h with a final DMSO concentration of 0.1% v/v. […] Degradation data was plotted and analysed using Prism (Graphpad, version 8), where bars are mean±SEM of three independent experiments.

[7] = system: HEK293 cells; assay: Unbiased whole proteome analysis by TMT-labelling MS; details: HEK293, 1 μM, 4 h, n=3
Experimental: HEK293 (2.2×10 6) cells were seeded in 10 cm plates (10 mL medium) overnight before treatment with 1 μM compound for a final DMSO concentration of 0.1% v/v. After 4 h incubation time, cells were washed with 2× with DPBS (Gibco) and lysed using 500 μL lysis buffer (100 mM Tris, 4% (w/v) SDS, pH 8.0) supplemented with cOmplete Mini EDTA-free protease inhibitor cocktail (Roche) and benzonase. Lysates were briefly sonicated (2×10 s), clarified by centrifugation (20000 g, 10 min, 4° C.) and the total protein content of the supernatant was quantified using a BCA assay (Thermo Fisher Scientific).
Sample processing, digestion, desalting, labelling, and fractionation were performed at Fingerprint Proteomics (University of Dundee) as described previously [Gadd et al. 10.1038/nchembio.2329]. FIG. 7 depicts fold change of abundance of 7882 proteins comparing 11JQ15 to DMSO treatment (left) and comparing 1 μM 11JQ17 to DMSO treatment (right), as well as their respective p-values (t-test; n=3).

Brd3, sequence (Q15059 whole entry): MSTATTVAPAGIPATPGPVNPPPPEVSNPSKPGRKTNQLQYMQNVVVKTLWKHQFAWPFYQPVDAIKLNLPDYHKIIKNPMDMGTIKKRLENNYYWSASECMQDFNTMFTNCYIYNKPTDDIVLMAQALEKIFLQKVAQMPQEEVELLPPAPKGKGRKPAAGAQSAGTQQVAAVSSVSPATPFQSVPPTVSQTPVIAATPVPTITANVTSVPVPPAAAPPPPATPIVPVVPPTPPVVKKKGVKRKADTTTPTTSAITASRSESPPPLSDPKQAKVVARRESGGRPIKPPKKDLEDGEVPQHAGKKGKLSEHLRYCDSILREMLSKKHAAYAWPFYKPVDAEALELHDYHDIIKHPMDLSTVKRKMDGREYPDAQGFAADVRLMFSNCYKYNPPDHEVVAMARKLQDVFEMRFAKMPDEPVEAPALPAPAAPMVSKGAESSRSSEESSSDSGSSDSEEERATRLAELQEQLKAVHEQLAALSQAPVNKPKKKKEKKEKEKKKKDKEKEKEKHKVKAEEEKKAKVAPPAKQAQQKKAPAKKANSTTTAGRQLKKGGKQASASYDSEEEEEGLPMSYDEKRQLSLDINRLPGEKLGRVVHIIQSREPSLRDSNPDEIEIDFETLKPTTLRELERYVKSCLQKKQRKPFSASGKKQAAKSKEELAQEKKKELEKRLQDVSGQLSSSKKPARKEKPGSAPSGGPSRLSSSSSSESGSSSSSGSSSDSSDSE
Brd2, sequence (P25440 whole entry): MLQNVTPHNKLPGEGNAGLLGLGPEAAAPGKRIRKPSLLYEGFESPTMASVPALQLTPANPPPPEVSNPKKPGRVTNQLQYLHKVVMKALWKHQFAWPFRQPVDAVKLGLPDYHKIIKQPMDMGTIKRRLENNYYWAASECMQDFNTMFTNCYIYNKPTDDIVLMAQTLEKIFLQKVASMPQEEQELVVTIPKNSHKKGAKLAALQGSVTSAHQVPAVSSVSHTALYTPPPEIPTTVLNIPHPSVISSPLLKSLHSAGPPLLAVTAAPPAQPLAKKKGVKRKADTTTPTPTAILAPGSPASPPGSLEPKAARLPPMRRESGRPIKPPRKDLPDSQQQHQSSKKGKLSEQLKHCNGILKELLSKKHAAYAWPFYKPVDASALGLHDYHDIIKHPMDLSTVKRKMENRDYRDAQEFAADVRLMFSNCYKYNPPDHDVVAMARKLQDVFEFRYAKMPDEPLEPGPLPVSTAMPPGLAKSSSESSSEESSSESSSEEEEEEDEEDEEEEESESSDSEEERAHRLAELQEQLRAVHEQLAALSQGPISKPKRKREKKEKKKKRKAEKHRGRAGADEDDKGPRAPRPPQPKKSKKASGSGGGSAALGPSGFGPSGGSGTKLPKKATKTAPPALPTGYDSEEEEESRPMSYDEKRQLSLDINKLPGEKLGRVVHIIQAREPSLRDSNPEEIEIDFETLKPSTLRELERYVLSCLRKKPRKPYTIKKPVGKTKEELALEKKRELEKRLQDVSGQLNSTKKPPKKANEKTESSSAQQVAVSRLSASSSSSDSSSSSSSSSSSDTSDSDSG

| Dmax at 1 µM [1] [%] | Abs. T1/2 [1] [h] | T1/2 [1] [h] | Dmax [2] [%] | Abs. T1/2 [2] [h] | T1/2 [2] [h] | Dmax [3] [%] | Abs. T1/2 [3] [h] | T1/2 [3] [h] | Dmax at 1 µM [5] [%] | Abs. T1/2 ([5]; time to deplete 50% of the protein relative to DMSO) [h] | T1/2 ([5]; time to reach 50% of the Dmax) [h] | Brd4 levels (FIG. 3) [6] | Compound | cytotoxicity profile / anti-proliferative effect (FIG. 8) [4] | fold change of abundance of 7882 proteins vs DMSO (FIG. 7) [7] |
| --- | --- | --- | --- | --- | --- | --- | --- | --- | --- | --- | --- | --- | --- | --- | --- |
| 95 | 3.4 | 2.9 | 100 | 2.4 | 2.3 | 100 | 3.1 | 3 | 50 | 4 | 4 | – | Cc1sc2c(c1C)C(c1ccc(Cl)cc1)=N[C@@H](CC(=O)NCCCCNC(=O)c1cc(S)c3ncc(C(=O)NCCc4nccs4)cc3c1)c1nnc(C)n1-2 [Example 11JQ7] | distinct from JQ1 and inactive 11JQ18 | – |
| 70 | 2.6 | 1.5 | 90 | 4.3 | 3.5 | 90 | 3.3 | 2.8 | – | – | – | significant depletion of Brd4 levels | Cc1sc2c(c1C)C(c1ccc(Cl)cc1)=N[C@@H](CC(=O)NCCOCCNC(=O)c1cc(SC(=O)c3ccccc3)c3ncc(C(=O)NCCc4nccs4)cc3c1)c1nnc(C)n1-2 [Example 11JQ15] | – | selective degradation of Brd2, Brd3 and Brd4 |
| 95 | 1.9 | 1.6 | – | – | – | – | – | – | – | – | – | – | Cc1sc2c(c1C)C(c1ccc(Cl)cc1)=N[C@@H](CC(=O)NCCCCNC(=O)c1cc(SC(=O)c3ccccc3)c3ncc(C(=O)NCCc4nccs4)cc3c1)c1nnc(C)n1-2 [Example 11JQ16] | distinct from JQ1 and inactive 11JQ18 | – |
